Values after ≈ are worked out from the molar mass of the structure shown. Where two headings read alike, the source gives them in different places. The star is where a group is joined. Propanoyl(3-maleimido) = O=C1C=CC(=O)N1CCC(=O)*
Tests used:
[1] = clinically achievable serum levels; cited from earlier work
[2] = test system: MRSA (NRS384 strain of USA300); test: MIC determinations for extracellular bacteria; conditions: Staphylococcus aureus, read-out: Extracellular MRSA MIC
Protocol: Dilutions of the antibiotic were made in quadruplicate in 96 well culture dishes. MRSA (NRS384 strain of USA300) was taken from an exponentially growing culture and diluted to 1×10^4 CFU/mL. Bacteria was cultured in the presence of antibiotic for 18-24 hours with shaking at 37° C. and bacterial growth was determined by reading the Optical Density (OD) at 630 nM. The MIC was determined to be the dose of antibiotic that inhibited bacterial growth by >90%.

[3] = test system: MRSA (NRS384 strain of USA300); test: MIC determinations for intracellular bacteria inside mouse peritoneal macrophages; type: cell-based, Staphylococcus aureus; conditions: for MIC: Staphylococcus aureus, read-out: Intracellular MRSA MIC
human cathepsin B = human cathepsin B (Homo sapiens, UniProt P07858); test: Linker cleavage assay with purified protease; type: biochemical; conditions: for Percent cleavage pH 7.2, Cathepsin B: PBS pH 7.2, 2 hours at 37° C.; for Percent cleavage pH 7.2, Cathepsin B / Cleavage product, Cathepsin B: LC-MS
Protocol: The experimental mal-peptide-QSY7 linkers were conjugated to THIOFAB S4497 to evaluate the cleavability of these linkers.
Fractions from each chromatography step were analyzed for activity, and 100 ul was used regardless of protein concentration. Samples were incubated overnight at 37° C. and subsequently analyzed by LC-MS to identify fractions where protease cleavage of the linker-antibiotic had occurred. Pooled active fractions from the Q Sepharose FF chromatography were measured to have a total protein concentration of 14 mg/ml. 200 μg of the pool was diluted to 2 mg/ml in PBS and was incubated with and without N-ethylmaleimide (NEM, Sigma) at a concentration of 0.1 mM final. Samples were incubated at room temperature for 1 hour. […] At 2 hours, samples were analyzed by LC-MS to identify whether protease cleavage of the linker-antibiotic had occurred. About 50 ul of the active fractions from SEC were incubated with 0.1 mM Alexa Fluor 488 C5 maleimide (Invitrogen) for 1 hour regardless of protein concentration for labeling. Cleavage assays with purified proteases were performed by incubating 5 uM of the thioFAB conjugate with 50 nM protease in a final volume of 100 ul. Assays were either performed in PBS pH 7.2, 4 mM L-Cys, 2.5 mM EDTA or 100 mM Sodium Citrate pH 5, 100 mM NaCl, 4 mM L-Cys, 2.5 mM EDTA. Samples were incubated for 2 hours at 37° C. At 2 hours, cleavage reactions were quenched by diluting 1:1 with 1% TFA. Samples were subsequently run on LC-MS to determine percent linker cleavage. Percent cleavage was determined by integrating the A280 chromatograms of the cleaved and intact species. The antibiotic or chromophore moieties added on the C-terminus of the linkers add significant hydrophobicity, such that thioFAB with intact linkers and thioFAB with cleaved linkers are baseline resolved.
(§2) 5 μM of thioFAB 4497 MP-LAFGA-QSY7(“core peptide” disclosed as SEQ ID NO: 135) and thioFAB 4497 MP-LAFAA-QSY7 (“core peptide” disclosed as SEQ ID NO: 136) (FIG. 30) were incubated with 50 nM of protease in PBS pH 7.2, 4 mM L-Cys, 2.5 mM EDTA for 2 hours at 37° C. At 2 hours, cleavage reactions were quenched by diluting 1:1 with 1% TFA. Samples were subsequently run on LC-MS to determine percent linker cleavage.

staphopain A = target: T1, staphopain A (Staphylococcus aureus, UniProt P81297); type: biochemical; conditions: for Percent cleavage pH 7.2, Staphopain A: PBS pH 7.2, 2 hours at 37° C.; for Percent cleavage pH 7.2, Staphopain A / Cleavage product, Staphopain A: LC-MS
T1 sequence (P81297 215-388): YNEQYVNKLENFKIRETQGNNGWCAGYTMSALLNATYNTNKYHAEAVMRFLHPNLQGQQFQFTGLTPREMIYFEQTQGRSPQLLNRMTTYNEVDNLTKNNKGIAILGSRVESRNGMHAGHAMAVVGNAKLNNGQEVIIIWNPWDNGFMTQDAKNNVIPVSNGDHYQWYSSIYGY
Protocol: Fractions from each chromatography step were analyzed for activity, and 100 ul was used regardless of protein concentration. Samples were incubated overnight at 37° C. and subsequently analyzed by LC-MS to identify fractions where protease cleavage of the linker-antibiotic had occurred. Pooled active fractions from the Q Sepharose FF chromatography were measured to have a total protein concentration of 14 mg/ml. 200 μg of the pool was diluted to 2 mg/ml in PBS and was incubated with and without N-ethylmaleimide (NEM, Sigma) at a concentration of 0.1 mM final. Samples were incubated at room temperature for 1 hour. […] At 2 hours, samples were analyzed by LC-MS to identify whether protease cleavage of the linker-antibiotic had occurred. About 50 ul of the active fractions from SEC were incubated with 0.1 mM Alexa Fluor 488 C5 maleimide (Invitrogen) for 1 hour regardless of protein concentration for labeling. Cleavage assays with purified proteases were performed by incubating 5 uM of the thioFAB conjugate with 50 nM protease in a final volume of 100 ul. Assays were either performed in PBS pH 7.2, 4 mM L-Cys, 2.5 mM EDTA or 100 mM Sodium Citrate pH 5, 100 mM NaCl, 4 mM L-Cys, 2.5 mM EDTA. Samples were incubated for 2 hours at 37° C. At 2 hours, cleavage reactions were quenched by diluting 1:1 with 1% TFA. Samples were subsequently run on LC-MS to determine percent linker cleavage. Percent cleavage was determined by integrating the A280 chromatograms of the cleaved and intact species.
as §2
5 μM of AAC-193 was incubated with 50 nM of protease in either PBS pH 7.2, 4 mM L-Cys, 2.5 mM EDTA or 100 mM Sodium Citrate pH 5, 100 mM NaCl, 4 mM L-Cys, 2.5 mM EDTA for 2 hours at 37° C. At 2 hours, cleavage reactions were quenched by diluting 1:1 with 1% TFA. Samples were subsequently run on LC-MS to determine percent linker cleavage.

staphopain B = target: T2, staphopain B (Staphylococcus aureus, UniProt P0C1S6); type: biochemical; conditions: for Percent cleavage pH 7.2, Staphopain B: PBS pH 7.2, 2 hours at 37° C.; for Percent cleavage pH 7.2, Staphopain B / Cleavage product, Staphopain B: LC-MS
T2 construct: purchased Sigma-Aldrich S3951
T2 sequence (P0C1S6 220-393): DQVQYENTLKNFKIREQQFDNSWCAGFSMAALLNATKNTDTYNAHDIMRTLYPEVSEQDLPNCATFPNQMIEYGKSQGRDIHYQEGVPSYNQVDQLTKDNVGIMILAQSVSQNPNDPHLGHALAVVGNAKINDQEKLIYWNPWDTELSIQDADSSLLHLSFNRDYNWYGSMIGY
Protocol: Cleavage assays with purified proteases were performed by incubating 5 uM of the thioFAB conjugate with 50 nM protease in a final volume of 100 ul. Assays were either performed in PBS pH 7.2, 4 mM L-Cys, 2.5 mM EDTA or 100 mM Sodium Citrate pH 5, 100 mM NaCl, 4 mM L-Cys, 2.5 mM EDTA. Samples were incubated for 2 hours at 37° C. At 2 hours, cleavage reactions were quenched by diluting 1:1 with 1% TFA. Samples were subsequently run on LC-MS to determine percent linker cleavage. Percent cleavage was determined by integrating the A280 chromatograms of the cleaved and intact species. The antibiotic or chromophore moieties added on the C-terminus of the linkers add significant hydrophobicity, such that thioFAB with intact linkers and thioFAB with cleaved linkers are baseline resolved.
At 2 hours, cleavage reactions were quenched by diluting 1:1 with 1% TFA. Samples were subsequently run on LC-MS to determine percent linker cleavage.

MRSA [4] = conditions: TSB media; vancomycin 2 and 20 μg/mL, rifampin 0.02 and 0.2 μg/mL
MRSA [5] = test: Transfer of infection from peritoneal cells to MG63 osteoblasts in the presence of vancomycin; type: cell-based, Staphylococcus aureus; conditions: 5 μg/mL of vancomycin
Protocol: 6-8 week old female A/J mice (JAX™ Mice, Jackson Laboratories) were infected with 1×10^8 CFU of the NRS384 strain of USA300 by peritoneal injection. […] Peritoneal cells were then washed 2× in ice cold HB buffer. […] Free MRSA from the primary infection was stored overnight at 4° C. in Phosphate Buffered Saline Solution as a control for extracellular bacteria that were not subject to neutrophil killing.
Osteoblasts were plated in 24 well tissue culture plates and cultured to obtain a confluent layer. On the day of the experiment, the osteoblasts were washed once in RPMI (without supplements). MRSA or infected peritoneal cells were diluted in complete RPMI-10 and vancomycin was added at 5 μg/mL immediately prior to infection. Peritoneal cells were added to the osteoblasts at 1×10^6 peritoneal cells/mL. A sample of the cells was lysed with 0.1% triton-x to determine the actual concentration of live intracellular bacteria at the time of infection.
To generate a pool of intracellular S. aureus, A/J mice were infected with MRSA and infected peritoneal cells were taken 1 day post infection. […] The total number of surviving intracellular bacteria in each well was determined by plating cell lysates on agar plates. […]

MRSA (USA300) = test: Intravenous infection model in CB17.SCID mice reconstituted with human IgG; type: in vivo, mouse
Protocol: To confirm that the AAC would be effective in the presence of competing human antibodies in vivo, the in vivo infection model was modified to generate mice that express normal levels of human IgG in the serum. […] Four days after infection the bacterial load in the kidneys (FIG. 10C) was assessed.
Efficacy of the AAC was compared with that of treatment with vancomycin, the current standard of care treatment for MRSA infections. […] CB17.SCID mice were reconstituted with human IgG using a dosing regimen optimized to yield constant levels of at least 10 mg/mL of human IgG in serum.
(§1) 7 week old female mice were used for all in vivo experiments and infections were carried out by intravenous injection into the tail vein. A/J mice (Jackson Lab) were infected with a dose of 2×10^6 CFU. […] For studies examining the role of competing human IgG (SCID IVIG model), CB17.SCID mice (Charles River Laboratories, Hollister, Calif.) were reconstituted with GammaGard S/D IGIV Immune Globulin (ASD Healthcare, Brooks Ky.) using a dosing regimen optimized to achieve constant serum levels of >10 mg/mL of human IgG. IGIV was administered with an initial intravenous dose of 30 mg per mouse followed by a second dose of 15 mg/mouse by intraperitoneal injection after 6 hours, and subsequent daily dosings of 15 mg per mouse by intraperitoneal injection for 3 consecutive days. […]

USA300 = test: Pre-treatment in intravenous infection model in Balb/c mice; type: in vivo, mouse; conditions: antibodies 50 mg/Kg IV 30 minutes prior to infection; vancomycin 110 mg/Kg twice daily IP; day 4
Protocol: Balb/c mice were given a single dose of vehicle control (PBS) or 50 mg/Kg of antibodies by intravenous injection 30 minutes prior to infection with 2×10^7 CFU of USA300. […] Control mice were given twice daily treatments with 110 mg/Kg of vancomycin by intraperitoneal injection (Vanco). All mice were sacrificed on day 4 post-infection, and the total number of surviving bacteria in kidneys (2 kidneys pooled) was determined by plating.
as §1, with “days. Mice were infected 4 hours after the first dose of IGIV with 2×10^7 CFU of MRSA diluted in phosphate buffered saline by intravenous injection.” for “days.”

MRSA [6] = test: Intravenous infection model in CB17.SCID mice; type: in vivo, mouse; conditions: 50 mg/Kg AAC or 0.5 mg/Kg antibiotic, kidneys 4 days after infection
Protocol: Mice were sacrificed 4 days after infection and the total number of surviving bacteria per mouse (2 kidneys pooled) was determined by plating.
as §1, with “days. Mice were infected 4 hours after the first dose of IGIV with 2×10^7 CFU of MRSA diluted in phosphate buffered saline by intravenous injection. Mice that received vancomycin were treated with twice daily intraperitoneal injections of 100 mg/Kg of vancomycin starting between 6 and 24 hours post infection for the duration of the study.” for “days.”

[7] = MRSA inside mouse peritoneal macrophages, antibiotics added 1 day after infection, survival assessed 24 hours later
[8] = 5 μM conjugate, 50 nM protease, Sodium Citrate pH 5, 2 hours at 37° C.
[9] = listed as MP-LAFG-piperazino-rifamycin

| Compound | Serum Cmax [1] | MIC [2] | MIC [3, 7] | Percent cleavage pH 7.2, Cathepsin B (human cathepsin B; 5 μM conjugate, 50 nM protease) | Cleavage product, Cathepsin B (human cathepsin B) | Percent cleavage pH 7.2, Staphopain A (staphopain A; 5 μM conjugate, 50 nM protease) | Cleavage product, Staphopain A (staphopain A) | Percent cleavage pH 7.2, Staphopain B (staphopain B; 5 μM conjugate, 50 nM protease) | Cleavage product, Staphopain B (staphopain B) | further results |
| --- | --- | --- | --- | --- | --- | --- | --- | --- | --- | --- |
| CCCCCCCCCC(=O)N[C@@H](Cc1c[nH]c2ccccc12)C(=O)N[C@H](CC(N)=O)C(=O)N[C@@H](CC(=O)O)C(=O)N[C@@H]1C(=O)NCC(=O)N[C@@H](CCCN)C(=O)N[C@@H](CC(=O)O)C(=O)N[C@H](C)C(=O)N[C@@H](CC(=O)O)C(=O)NCC(=O)N[C@H](CO)C(=O)N[C@@H]([C@H](C)CC(=O)O)C(=O)N[C@@H](CC(=O)c2ccccc2N)C(=O)O[C@@H]1C [Daptomycin] | 80000 ng/mL | 4 µg/mL (≈ 2.47 µM) | > 100 µg/mL | – | – | – | – | – | – | – |
| CO[C@H]1/C=C/O[C@@]2(C)Oc3c(C)c(O)c4c(=O)c(c5oc6cc(N7CCN(C(=O)OCc8ccc(NC(=O)CNC(=O)[C@H](Cc9ccccc9)NC(=O)[C@H](C)NC(=O)[C@H](CC(C)C)NC(=O)CCN9C(=O)C=CC9=O)cc8)CC7)cc(O)c6nc-5c4c3C2=O)NC(=O)/C(C)=C\C=C\[C@H](C)[C@H](O)[C@@H](C)[C@@H](O)[C@@H](C)[C@H](OC(C)=O)[C@@H]1C [LA-104, MP-LAFG-PABC-(piperazinoBOR)] | – | – | – | 64% | Phe-Gly-piperazino-rifamycin | 46% | piperazino- | 100% | piperazino- | Percent cleavage pH 5, Cathepsin B (human cathepsin B; [8]): 100%; Percent cleavage pH 5, Staphopain A (staphopain A; [8]): 100%; Cleavage product, Staphopain A (staphopain A; [9]): free rifamycin; Percent cleavage pH 5, Staphopain B (staphopain B; [8]): 100%; Cleavage product, Staphopain B (staphopain B; [9]): free rifamycin |
| CC(=O)NC[C@H]1CN(c2ccc(N3CCOCC3)c(F)c2)C(=O)O1 [Linezolid] | 10000 ng/mL | 0.3 µg/mL (≈ 0.889 µM) | – | – | – | – | – | – | – | MIC ([3]; 24 h): > 20 µg/mL |
| CO[C@H]1/C=C/O[C@@]2(C)Oc3c(C)c(O)c4c(O)c(c(/C=N/N5CCN(C)CC5)c(O)c4c3C2=O)NC(=O)/C(C)=C\C=C\[C@H](C)[C@H](O)[C@@H](C)[C@@H](O)[C@@H](C)[C@H](OC(C)=O)[C@@H]1C [Rifampicin] | 20000 ng/mL | 0.004 µg/mL (≈ 0.00486 µM) | > 20 µg/mL | – | – | – | – | – | – | bacteria remained viable during the first two hours of antibiotic treatment (MRSA [4]): 90%; loss in viable bacteria by 5 hours (MRSA [4]): 100 fold |
| CN[C@H](CC(C)C)C(=O)N[C@H]1C(=O)N[C@@H](CC(N)=O)C(=O)N[C@H]2C(=O)N[C@H]3C(=O)N[C@H](C(=O)N[C@H](C(=O)O)c4cc(O)cc(O)c4-c4cc3ccc4O)[C@H](O)c3ccc(c(Cl)c3)Oc3cc2cc(c3O[C@@H]2O[C@H](CO)[C@@H](O)[C@H](O)[C@H]2O[C@H]2C[C@](C)(N)[C@H](O)[C@H](C)O2)Oc2ccc(cc2Cl)[C@H]1O [Vancomycin] | 10000 to 40000 ng/mL | 1 µg/mL (≈ 0.69 µM) | > 100 µg/mL | – | – | – | – | – | – | intracellular bacteria in MG63 wells 1 day post infection (MRSA [5]; similar dose of free (extracellular) MRSA): 375 intracellular bacteria; intracellular bacteria in MG63 wells 1 day after infection (MRSA [5]; wells infected with 3×10^4 intracellular bacteria (peritoneal cells)): 8,750 intracellular bacteria; bacteria remained viable during the first two hours of antibiotic treatment (MRSA [4]): 90%; loss in viable bacteria by 5 hours (MRSA [4]): 100 fold; efficacy in kidneys (FIG. 11A) (MRSA (USA300); AAC single dose 50 mg/Kg day 1, vancomycin 100 mg/Kg twice daily, day 4): failed to clear the infection; reduction of bacterial loads (MRSA (USA300); twice-daily 100 mg/Kg, treatment initiated more than 1 day post infection): about 50 fold; effect of pre-treatment on bacterial loads in kidneys (USA300): cleared the infection in all of the mice tested |
| MP-LAFAA-QSY7: maleimido-propionic-Leu-Ala-Phe-Ala-Ala linker with QSY7 as antibiotic surrogate, tested conjugated to thioFAB S4497 ({Propanoyl(3-maleimido)}-LAFAA-QSY7; also: conjugated to thioFAB S4497) | – | – | – | 100% | A-QSY7, and QSY7 | 23% | A-QSY7 | 100% | A-QSY7 | – |
| MP-LAFGA-QSY7: maleimido-propionic-Leu-Ala-Phe-Gly-Ala linker with QSY7 as antibiotic surrogate, tested conjugated to thioFAB S4497 ({Propanoyl(3-maleimido)}-LAFGA-QSY7; also: conjugated to thioFAB S4497) | – | – | – | 100% | A-QSY7 | 38% | A-QSY7 | 100% | A-QSY7 | – |
| dimethylpiperidyl benzoxazino rifamycin [dimethyl-pipBOR] | – | – | – | – | – | – | – | – | – | efficacy when given 1 day post infection (MRSA [6]): failed to clear the infection; killing intracellular MRSA when tested as free antibiotics [3]: more potent than rifampicin |
| piperidyl benzoxazino rifamycin [pipBOR] | – | – | – | – | – | – | – | – | – | killing intracellular MRSA when tested as free antibiotics [3]: more potent than rifampicin |

From patent US9803002B2, “Anti-wall teichoic antibodies and conjugates” (Genentech, Inc., priority 2013, dated 2017)
